This test concerns the target T1, cynomolgus BK1-receptor (Macaca fascicularis, UniProt Q3BCU0).
T1 construct: expressed in transfected cells; host or cells: CHO cells (homogenate)
T1 sequence (Q3BCU0 1-352): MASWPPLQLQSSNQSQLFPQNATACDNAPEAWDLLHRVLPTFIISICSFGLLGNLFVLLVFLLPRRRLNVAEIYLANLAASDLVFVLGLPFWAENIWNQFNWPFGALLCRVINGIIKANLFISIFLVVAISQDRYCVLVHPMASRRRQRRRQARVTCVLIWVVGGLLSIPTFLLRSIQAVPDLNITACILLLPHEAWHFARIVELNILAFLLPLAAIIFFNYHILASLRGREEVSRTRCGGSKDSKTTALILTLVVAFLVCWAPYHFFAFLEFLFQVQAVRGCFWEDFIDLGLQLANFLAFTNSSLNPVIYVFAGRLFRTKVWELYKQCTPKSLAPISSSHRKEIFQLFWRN
As to the kind of experiment: cynoBK1-receptor binding assay. The following applies: CHO cells expressing cynomolgus BK1-receptor, radioligand kallidine (DesArg10,Leu9); for inhibition at 10 µM: at 10 μgmol/L. The procedure:
Description of the Method of Binding the cynoBK1-Receptor
CHO cells that express the cynomolgus BK1-receptor are cultivated in “HAM'S F-12 Medium”. The medium is removed from confluent cultures, the cells are washed with PBS buffer, scraped off or detached using Versene and isolated by centrifuging. Then the cells are homogenised in suspension, the homogenate is centrifuged and resuspended. After the protein content has been determined 200 μl of the homogenate (50 to 250 μg protein/assay) are incubated for 60-180 minutes at ambient temperature with 0.5 to 5.0 nM kallidine (DesArg10,Leu9), [3,4-Prolyl-3,43H(N)] and increasing concentrations of the test substance in a total volume of 250 μl. The incubation is stopped by rapid filtration through GF/B glass fibre filters that have been pre-treated with polyethyleneimine (0.3%). The radioactivity bound to the protein is measured with a TopCount NXT. The radioactivity bound in the presence of 1.0 μM kallidine (DesArg10) is defined as non-specific binding. The concentration binding curve may be analysed using computer-aided non-linear curve fitting to determine the corresponding Ki value for the test substance.
Test results of the cynoBK1-receptor binding assay: […]

SMILES strings stand for the structures.

`COc1ncc(C(=O)NC2(C(=O)NCc3ncc(Nc4c(F)cccc4C(F)(F)F)cc3F)CC2)cn1` [(129)]: the Ki (as a rule, a measure of affinity in units of concentration, obtained from inhibition or displacement) stood at 11 nM and the inhibition – broadly, the change of the read-out against control, counted positive when it falls – at 10 µM was 107%.
Regarding `CC(NC(=O)C1(NC(=O)c2cncnc2)CC1)c1ccc(Nc2ccc(Cl)cc2C(F)(F)F)cn1` (centres unmarked) [(164)], the Ki stood at 3.4 nM and the inhibition at 10 µM was determined as 106%.
Take `COc1cccc(C(=O)N[C@@]2(C(=O)NCc3ccc(Nc4ccccc4C(F)(F)F)cc3)CCOC2)c1` [(100)]: the inhibition at 10 µM worked out at 103%.
As to `O=C(NC1(C(=O)NCc2ccc(Nc3ccc(F)cc3C(F)(F)F)cn2)CC1)c1cnc2[nH]cnc2c1` [(143)], affinity was put at a Ki of 12 nM and the inhibition at 10 µM is 106%.
Molecule `Nc1cncc(C(=O)N[C@@]2(C(=O)NCc3ncc(Nc4c(F)cccc4C(F)(F)F)cc3Cl)CCOC2)c1` [(237)] yielded a Ki of 151 nM.
Turning to `CNc1ncc(C(=O)NC2(C(=O)NCc3ccc(Nc4ccc(Cl)cc4C(F)(F)F)cn3)CC2)cn1` [(145)], affinity was put at a Ki of 2.8 nM and the inhibition at 10 µM was 99%.
In the case of `O=C(N[C@@]1(C(=O)NCc2ccc(Nc3ccccc3C(F)(F)F)cc2)CCOC1)c1ccco1` [(94)], the inhibition at 10 µM amounted to 57%.
Regarding `COc1ncc(C(=O)N[C@@]2(C(=O)NCc3ncc(Nc4ccc(Cl)cc4C(F)(F)F)cc3F)CCOC2)cn1` [(314)], the Ki stood at 15 nM. In other words, the double-digit nanomolar range.
`Nc1ncc(C(=O)NC2(C(=O)NCc3ccc(Nc4ccc(F)cc4C(F)(F)F)cn3)CC2)s1` [(184)]: the inhibition at 10 µM worked out at 99%.
`O=C(CC(F)(F)F)NC1(C(=O)NCc2ccc(Nc3ccc(Cl)cc3C(F)(F)F)cn2)CC1` [(363)] came in with an inhibitory constant (Ki) of 45 nM.
As for `O=C1CCC(C(=O)N[C@@]2(C(=O)NCc3ccc(Nc4ccccc4C(F)(F)F)cc3)CCOC2)N1` (some centres unmarked) [(56)], the inhibition at 10 µM is 99%.
For the molecule `Nc1cncc(C(=O)N[C@@]2(C(=O)NCc3ncc(Nc4c(F)cccc4C(F)(F)F)cc3F)CCOC2)c1` [(154)], the inhibitory constant (Ki) turned out to be 89 nM and the inhibition at 10 µM is 101%.
The corresponding values for `O=C(NC1(C(=O)NCc2ccc(Nc3ccc(Br)cc3Cl)cn2)CC1)c1cncnc1` [(126)] are 46 nM and 103%.
As for `O=C(NC1(C(=O)NCc2ncc(Nc3ccc(F)cc3C(F)(F)F)cc2Cl)CC1)c1cncnc1` [(187)], the inhibition at 10 µM amounted to 100%.
Regarding `Cn1cnc2cc(C(=O)NC3(C(=O)NCc4ccc(Nc5ccc(Cl)cc5C(F)(F)F)cn4)CC3)ccc21` [(264)], the Ki was determined as 60 nM.
As to `CCOc1ccc(Nc2ccc(CNC(=O)C3(NC(=O)c4cncnc4)CC3)cc2)c(C(F)(F)F)c1` [(117)], the inhibitory constant (Ki) is 2.8 nM and the inhibition at 10 µM turned out to be 111%.
With `Cc1ncc(C(=O)N[C@@]2(C(=O)NCc3ncc(Nc4ccc(Cl)cc4C(F)(F)F)cc3Cl)CCOC2)cn1` [(282)], the Ki is 7.9 nM. In other words, the single-digit nanomolar range.
For `O=C(NC1(C(=O)NCc2ccc(Nc3ccc(Br)cc3C(F)(F)F)cn2)CC1)c1cncnc1` [(54)], the affinity, expressed as Ki, was 3.8 nM and the inhibition at 10 µM turned out to be 112%.
For `O=C(NC1(C(=O)NCc2ccc(Nc3c(F)cccc3C(F)(F)F)cn2)CC1)c1cncnc1` [(44)] the same measures were 7 nM and 109%.
For `Nc1ncc(C(=O)NC2(C(=O)NCc3ccc(Nc4ccc(F)cc4C(F)(F)F)cn3)CC2)o1` [(169)], affinity was put at a Ki of 292 nM and the inhibition at 10 µM worked out at 90%.
`CN(C)c1cc(C(=O)NC2(C(=O)NCc3ccc(Nc4ccc(F)cc4C(F)(F)F)cn3)CC2)cnn1` [(252)] yielded a Ki of 120 nM.
Same read-out and setting: under `N#CC1(C(=O)NC2(C(=O)NCc3ccc(Nc4ccc(Cl)cc4C(F)(F)F)cn3)CC2)CC1` [(367)] stands 508 nM.
Still for that read-out and setting: under `O=C(NC1(C(=O)NCc2ccc(Nc3ccc(Cl)cc3C(F)(F)F)cn2)CC1)c1ccns1` [(357)] stands 44 nM.
`O=C(NC1(C(=O)NCc2ccc(Nc3ccc(F)cc3)cc2)CC1)c1cncnc1` [(37)]: the Ki is > 500 nM and the inhibition at 10 µM is 77%.
Take `O=C(NC1(C(=O)NCc2ccc(Nc3ccc(Cl)cc3C(F)(F)F)cn2)CC1)C(F)(F)F` [(362)]: the inhibition constant Ki was 101 nM.
In the case of `O=C(N[C@@]1(C(=O)NCc2ccc(Nc3ccc(F)cc3C(F)(F)F)cn2)CCOC1)c1cnc2[nH]cnc2c1` [(159)], the affinity, expressed as Ki, was 97 nM and the inhibition at 10 µM was determined as 91%.
`Nc1ccc(C(=O)NC2(C(=O)NCc3ccc(Nc4ccc(Cl)cc4C(F)(F)F)cn3)CC2)cn1` [(206)] had an inhibition constant (Ki) of 5.1 nM.
As for `O=C(NC1(C(=O)NCc2ncc(Nc3c(F)cccc3C(F)(F)F)cc2F)CC1)c1ccnc(O)c1` [(130)], the affinity, expressed as Ki, was 101 nM and the inhibition at 10 µM stood at 101%.
Consider `O=C(NC1(C(=O)NCc2ccc(Nc3ccccc3C(F)(F)F)cn2)CC1)c1cncnc1` [(39)], for which the affinity, expressed as Ki, was 5.5 nM and the inhibition at 10 µM amounted to 110%.
In turn, `Nc1ccc(C(=O)N[C@@]2(C(=O)NCc3ccc(Nc4ccc(F)cc4C(F)(F)F)cc3)CCOC2)cn1` [(309)] came in with an inhibitory constant (Ki) of 184 nM.
For the molecule `Cc1ccccc1N(C)c1ccc(CNC(=O)C2(NC(=O)c3cncnc3)CC2)cc1` [(113)], the inhibition at 10 µM amounted to 7%.
`O=C(NC1(C(=O)NCc2ccc(Nc3ccc(Cl)cc3C(F)(F)F)cn2)CC1)c1ccnnc1` [(209)] came in with a Ki of 73 nM.
With `Nc1cncc(C(=O)NC2(C(=O)NCc3ncc(Nc4c(F)cccc4C(F)(F)F)cc3F)CC2)c1` [(125)], affinity was put at a Ki of 12 nM and the inhibition at 10 µM came out at 108%.
In the case of `O=C(NC1(C(=O)NCc2ccc(Nc3ccc(Cl)cc3C(F)(F)F)cn2)CC1)c1cnc(NC2CC2)nc1` [(379)], the Ki came out at 5.5 nM.
For the molecule `N#C/C(=N\O)C(=O)N[C@@]1(C(=O)NCc2ccc(Nc3ccccc3C(F)(F)F)cc2)CCOC1` [(66)], the inhibition at 10 µM came out at 81%.
Regarding `O=C(NC1(C(=O)NCc2ccc(Nc3ccc(Cl)cc3C(F)(F)F)cn2)CC1)c1ccnc(F)c1` [(355)], the Ki was 433 nM.
Consider `O=C(N[C@@]1(C(=O)NCc2ccc(Nc3ccccc3C(F)(F)F)cc2)CCOC1)c1cncs1` [(89)], for which the inhibition at 10 µM was found to be 96%.
Regarding `N#Cc1cc(F)ccc1Nc1ccc(CNC(=O)C2(NC(=O)c3cncnc3)CC2)cc1` [(36)], the Ki is 21 nM and the inhibition at 10 µM was found to be 113%.
For the molecule `Nc1ccc(C(=O)NC2(C(=O)NCc3ccc(Nc4ccc(F)cc4C(F)(F)F)cn3)CC2)cn1` [(244)], the Ki stood at 8.4 nM.
As to `O=C(N[C@@]1(C(=O)NCc2ccc(Nc3ccccc3C(F)(F)F)cc2)CCOC1)C1CCOCC1` [(65)], the inhibition at 10 µM worked out at 76%.
`O=C(N[C@@]1(C(=O)NCc2ccc(Nc3ccc(Br)cc3C(F)(F)F)cn2)CCOC1)c1cncnc1` [(223)] gave an inhibition constant Ki of 75 nM.
On to `CC(NC(=O)C1(NC(=O)c2cncc(N)c2)CC1)c1ccc(Nc2c(F)cccc2C(F)(F)F)cn1` (centres unmarked) [(124)], for which the Ki is 33 nM and the inhibition at 10 µM is 112%.
As to `O=C(N[C@@]1(C(=O)NCc2ncc(Nc3c(F)cccc3C(F)(F)F)cc2F)CCOC1)c1cncnc1` [(158)], affinity was put at a Ki of 115 nM and the inhibition at 10 µM was 101%.
For `Nc1cncc(C(=O)N[C@@]2(C(=O)NCc3ncc(Nc4ccc(F)cc4C(F)(F)F)cc3F)CCOC2)c1` [(156)] the same measures were 8.5 nM and 107%.
For `Cc1cc(Nc2ccc(Cl)cc2C(F)(F)F)cnc1CNC(=O)C1(NC(=O)c2cncc(N)c2)CC1` [(361)], the affinity corresponds to a Ki of 10 nM.
On the same count and under the same terms, under `Cc1cncc(C(=O)NC2(C(=O)NCc3ccc(Nc4ccc(Cl)cc4C(F)(F)F)cn3)CC2)c1` [(353)] stands 52 nM.
On the same count and under the same terms, under `Nc1cncc(C(=O)N[C@@]2(C(=O)NCc3ccc(Nc4c(F)cccc4C(F)(F)F)cc3F)CCOC2)c1` [(290)] stands 46 nM; under `Cc1ncc(C(=O)NC2(C(=O)NCc3ccc(Nc4ccccc4C(F)(F)F)cc3F)CC2)cn1` [(294)], 1.2 nM; under `Nc1cncc(C(=O)NC2(C(=O)NCc3ncc(Nc4ccc(F)cc4C(F)(F)F)cc3Cl)CC2)c1` [(218)], 3.7 nM.
In the case of `Cc1ccc(C(=O)N[C@@]2(C(=O)NCc3ccc(Nc4ccccc4C(F)(F)F)cc3)CCOC2)cn1` [(58)], the inhibition at 10 µM was determined as 109%.
As for `Nc1ncc(C(=O)NC2(C(=O)NCc3ccc(Nc4ccc(Cl)cc4C(F)(F)F)cn3)CC2)cc1Br` [(378)], the affinity corresponds to a Ki of 4.6 nM.
Molecule `O=C(N[C@@]1(C(=O)NCc2ncc(Nc3ccc(Cl)cc3C(F)(F)F)cc2Cl)CCOC1)c1cncc(O)c1` [(286)] showed a Ki of 36 nM.
`Nc1ccc(C(=O)N[C@@]2(C(=O)NCc3ccc(Nc4ccc(Cl)cc4C(F)(F)F)cc3)CCOC2)cn1` [(318)] had an inhibition constant Ki of 316 nM.
On the same count and under the same terms, under `Cc1ncc(C(=O)NC2(C(=O)NCc3ncc(Nc4ccc(F)cc4C(F)(F)F)cc3F)CC2)cn1` [(298)] stands 0.7 nM.
As for `CCNc1ncc(C(=O)NC2(C(=O)NCc3ccc(Nc4ccc(F)cc4C(F)(F)F)cn3)CC2)cn1` [(247)], affinity was put at a Ki of 3.9 nM.

Source of the values: patent publication US20130131075A1, “NEW COMPOUNDS” (Boehringer Ingelheim International GmbH, priority 2009, published 2013).
